Assay results from US12178802B1, “3-(1-(3-(dimethylamino)propyl)-4,5-diphenyl-1H-imidazol-2-yl)pyridin-2-ol as an antitumor and antimicrobial compound” (KING FAISAL UNIVERSITY, priority 2023, dated 2024).

Columns and labels:
Experiment in all cases: cup-plate agar diffusion antimicrobial activity
Assay type in all cases: cell-based
[1] = tested on: Bacillus subtilis
Excerpt: (§1) Antibacterial activity of the synthesized compound has been tested using Gram-negative strains such as Escherichia coli, Salmonella enteric, Pseudomonas aeruginosa, and Pseudomonas putida; and Gram-positive strains such as Staphylococcus aureus, Staphylococcus epidermidis, Bacillus subtilis, and Micrococcus luteus. Additionally, antifungal activity has been tested using different Candida strains such as Candida albicans, Candida glabrata, and Candida krusei.
(§2) The present compound 3-(1-(3-(Dimethylamino)propyl)-4,5-diphenyl-1H-imidazol-2-yl)pyridin-2-ol was dissolved in DMF followed by dilution in buffer to obtain final concentrations of 60,000, 30,000 and 15,000 ppm. The final concentration of DMF was less than 2% in the final buffer solutions.
(§3) Negative control was performed using DMF diluted to similar final concentrations of compound solutions. Ampicillin and Geneticin were used as positive controls with similar dilutions and final concentrations.
(§4) Using the cup-plate agar diffusion method, a definite volume of the microbial suspension (inoculums) was mixed with sterilized agar media. Plates were prepared and left to solidify and then wells were prepared using a sterile cork borer. The wells were filled with an equal volume of a solution of synthesized compounds and standard drugs. The plates were incubated for a definite time under specified conditions. The zones of inhibition were measured in cm as a parameter of antimicrobial activity.
(§5) The tested antimicrobial activity of the 3-(1-(3-(Dimethylamino)propyl)-4,5-diphenyl-1H-imidazol-2-yl)pyridin-2-ol, as compared to ampicillin, can be seen in Table 1, below, with zones of inhibition measured in cm.

[2] = tested on: Escherichia coli
Excerpt: as §1, §2, §3, §4, §5

[3] = tested on: Micrococcus luteus
Excerpt: as §1, §2, §3, §4, §5

[4] = tested on: Pseudomonas aeruginosa
Excerpt: as §1, §2, §3, §4, §5

[5] = tested on: Pseudomonas putida
Excerpt: as §1, §2, §3, §4, §5

[6] = tested on: Salmonella enterica
Excerpt: as §1, §2, §3, §4, §5

[7] = tested on: Staphylococcus aureus
Excerpt: as §1, §2, §3, §4, §5

[8] = tested on: Staphylococcus epidermidis
Excerpt: as §1, §2, §3, §4, §5

Compound	zones of inhibition ([1]; concentration 15) [cm]	zones of inhibition ([1]; concentration 30) [cm]	zones of inhibition ([1]; concentration 60) [cm]	zones of inhibition ([2]; concentration 15) [cm]	zones of inhibition ([2]; concentration 30) [cm]	zones of inhibition ([2]; concentration 60) [cm]	zones of inhibition ([3]; concentration 15) [cm]	zones of inhibition ([3]; concentration 30) [cm]	zones of inhibition ([3]; concentration 60) [cm]	zones of inhibition ([4]; concentration 15) [cm]	zones of inhibition ([4]; concentration 30) [cm]	zones of inhibition ([4]; concentration 60) [cm]	zones of inhibition ([5]; concentration 15) [cm]	zones of inhibition ([5]; concentration 30) [cm]	zones of inhibition ([5]; concentration 60) [cm]	zones of inhibition ([6]; concentration 15) [cm]	zones of inhibition ([6]; concentration 30) [cm]	zones of inhibition ([6]; concentration 60) [cm]	zones of inhibition ([7]; concentration 15) [cm]	zones of inhibition ([7]; concentration 30) [cm]	other results
CN(C)CCCn1c(-c2cccnc2O)nc(-c2ccccc2)c1-c1ccccc1 [3-(1-(3-(Dimethylamino)propyl)-4,5-diphenyl-1H-imidazol-2-yl)pyridin-2-ol]	1.1	1.5	2.7	0.6	0.9	1.00	1.2	2.4	3.2	0.6	0.7	1.1	0.1	0.5	1.1	0.7	1.0	1.7	2.0	2.9	zones of inhibition ([7]; concentration 60): 3.9 cm; zones of inhibition ([8]; concentration 15): 2.1 cm; zones of inhibition ([8]; concentration 30): 3.0 cm; zones of inhibition ([8]; concentration 60): 3.3 cm
CC1(C)S[C@@H]2[C@H](NC(=O)[C@H](N)c3ccccc3)C(=O)N2[C@H]1C(=O)O [Ampicillin]	1.2	1.9	2.3	0.4	0.8	1.2	1.8	2.8	3.6	0.4	0.8	1.2	0.3	0.6	1.0	0.9	1.3	1.6	2.9	3.5	zones of inhibition ([7]; concentration 60): 4.0 cm; zones of inhibition ([8]; concentration 15): 2.5 cm; zones of inhibition ([8]; concentration 30): 3.0 cm; zones of inhibition ([8]; concentration 60): 3.5 cm
